Where two headings read alike, the source gives them in different places.
What was measured:
CN1 enzyme = target: T1, CN1 enzyme (Homo sapiens, UniProt Q96KN2); experiment: In vitro degradation of carnosine, anserine and balenine added to human heparin plasma; assay type: in vitro ADME; settings: for Time after which undetectable in plasma: 20 µM added to heparin plasma; for Time after which undetectable in plasma / Half-life in plasma / half-life at 20 µM: 37 °C; for Half-life in plasma / half-life at 20 µM: 20 µM added to human heparin plasma, 6 subjects; for half-life at 20 µM: both sexes, human, heparin plasma, read-out: Half-life in plasma
T1 construct: Fasted venous heparin plasma was collected from 6 subjects (5 males and 1 female) with a wide range in CN1 enzyme activity; from tissue; host or cells: human venous heparin plasma from 6 volunteers
T1 sequence (Q96KN2 26-507): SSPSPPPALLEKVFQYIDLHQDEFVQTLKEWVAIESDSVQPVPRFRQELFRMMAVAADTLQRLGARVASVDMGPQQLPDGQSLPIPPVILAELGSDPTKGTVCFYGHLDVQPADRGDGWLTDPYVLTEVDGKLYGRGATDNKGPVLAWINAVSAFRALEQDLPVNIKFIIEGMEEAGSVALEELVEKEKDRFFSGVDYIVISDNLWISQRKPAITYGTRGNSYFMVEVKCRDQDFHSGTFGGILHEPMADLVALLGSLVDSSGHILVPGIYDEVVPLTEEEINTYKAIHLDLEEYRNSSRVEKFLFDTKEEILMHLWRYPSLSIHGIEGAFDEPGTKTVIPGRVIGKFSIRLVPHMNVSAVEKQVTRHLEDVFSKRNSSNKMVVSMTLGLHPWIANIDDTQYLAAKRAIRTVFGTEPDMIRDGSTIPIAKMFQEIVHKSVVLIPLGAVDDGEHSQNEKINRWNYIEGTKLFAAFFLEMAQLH
Procedure: Fasted venous heparin plasma was collected from 6 subjects (5 males and 1 female) with a wide range in CN1 enzyme activity (0.32–2.92 µmol/mL/h with a mean value of 1.62 µmol/mL/h). Subjects were asked to refrain from alcohol, meat and fish the day before the sampling. […] On different time points (Table 1), plasma was deproteinized with 1:11 sulfosalicylic acid (SSA, 35% solution) to inhibit further hydrolysis. Samples were centrifuged for 5 min at 16,000 g and supernatant was stored at − 20 °C until further UHPLC-MS/MS analysis.
Extraction of plasma and urine for UHPLC-MS/MS analysis went as follows: 150 µL of deproteinized plasma/urine (not deproteinized) was added to 215 µL of acetonitrile containing 1% formic acid, 10 µL of internal standard (IS) (carnosine-D4) and 25 µL ultrapure water or standard (calibration curve and quality control samples (QC)). Then samples were vortexed and centrifuged (15 min, 4 °C, 15,000 g). Supernatant was used for further analyses.
In the in vitro study, supernatant was diluted 40 times before injection. In the PK study, plasma samples from the 10 mg/kg condition and baseline urine samples were diluted 100 times. All other urine samples were diluted 1000 times. Dilutions were conducted with acetonitrile containing 1% formic acid.
Analyses were performed on a UHPLC-MS/MS platform consisting of an Acquity H-Class Quaternary Solvent Manager and Flow-Through-Needle Sample Manager with temperature controlled tray (8 °C) and column oven (60 °C). Chromatographic separation was achieved on an Acquity UPLC BEH amide column (2.1 mm × 100 mm, 1.7 µm) with an Acquity amide Vanguard pre-column. The system operated at a flow rate of 0.3 mL/min with solvent A (ultrapure water), solvent B (acetonitrile) and solvent C (200 mM ammonium formate with 0.04% ammonia) with the gradient shown in Table 2. The UPLC column effluent was interfaced to a Xevo TQ-XS® MS/MS system (plasma samples) and Xevo TQ-S® (urine samples), equipped with an electrospray ionization (ESI) probe operating in positive ion mode. Further MS settings included desolvation gas flow rate (15 L/h), desolvation temperature (600 °C), cone gas flow rate (800 L/h), source temperature (150 °C) and capillary voltage (0.75 kV). Transition details are depicted in Table 3. […] The detector operated in multiple reacting monitoring mode, scanning the two most intense transitions of the HCDs. Masslynx software 4.2 was used for instrument control and data extraction. Hardware and software were purchased from Waters (Milford, MA, USA).
CN1 activity was quantified by fluorometric determination of histidine following carnosine addition (based on Teufel et al., 2003). The reaction was initiated by adding carnosine to the serum (final concentration of 3.33 mM carnosine) and stopped after 10 min incubation at 37 °C by adding trichloroacetic acid (final concentration of 150 mM TCA). For controls, trichloroacetic acid was added before carnosine. After centrifugation (15 min, 16000 g), 10 µl supernatant was added to 190 µl of an OPA-NaOH mixture (4000 µl incomplete ophtaldehyde, with 0.2% 2-mercaptoethanol, and 15 ml of 4 M sodium hydroxide solution) and fluorescence was determined after 40 min (excitation: 360 nm and emission: 465 nm). All chemicals were purchased from Sigma-Aldrich (Milan, Italy).
HCD concentration in the in vitro experiment was calculated relative to the starting concentration. Elimination constant (ke) and elimination half-life were calculated based on a monophasic decay profile. Incremental area under the plasma concentration time curve (iAUC) was calculated using the trapezoidal method in the PK study. A normality check was performed using Shapiro-Wilk’s test. In case of normally distributed data, a mixed-effects model and Pearson correlation was used. Skewed data were analysed with Friedman tests and Spearman rank correlations. Values are presented as mean/median ± standard deviation/inter quartile range and 95% confidence intervals (95% CI). […]

[1] = test system: serum carnosinase (CN1) enzyme; settings: cited from earlier work; for Substrate quality for the CN1 enzyme: ref 15-17
[2] = cited from earlier work
[3] = test system: human peptide transporter 2 (PEPT2); design: method as in PMID 20067523; settings: ref 23; cited from earlier work

SMILES	Time after which undetectable in plasma (CN1 enzyme)	Half-life in plasma (CN1 enzyme)	half-life at 20 µM (CN1 enzyme)	Elimination constant ke: factor difference between carnosine and anserine (CN1 enzyme; in vitro human heparin plasma, factor ×, not significant)	Substrate quality for the CN1 enzyme [1]	Hydrolysis rate as % of carnosine's ([1]; several in vitro experiments)	Cmax ([2]; 4 mg/kg oral, human)	Cmax ([2]; 10 mg/kg oral, human)	Plasma iAUC ([2]; 10 mg/kg oral, human)	Dose-dependent peak plasma concentrations after ingestion ([2]; human)	Average excreted percentage of the dose in urine (intact) ([2]; n = 7)	Affinity for PEPT2 [3]	Plasma concentration change after ingestion ([2]; 60 mg/kg bodyweight, only in people with low CN1 activity)	Plasma level after ingestion ([2]; highest dose of 20 mg/kg oral, human)	Resistance to CN1 ([1]; ref 29)
Cn1cncc1C[C@H](NC(=O)CCN)C(=O)O [anserine, β-alanyl-N(π)-methyl-L-histidine, reference compound]	15 min	2 min	2.14 ± 0.58 min	1.8	intermediate	30–50%	540 nM	1100 nM	66.7 µM·min	0.5 to 3.1 µM	6.3%	high-affinity ligand			
NCCC(=O)N[C@@H](Cc1cnc[nH]1)C(=O)O [carnosine, β-alanyl-L-histidine, reference compound]	5 min	1 min	1.2 ± 0.36 min		good								small increase	barely measurable	
NCCC(=O)NC(CO)Cc1cnc[nH]1 (stereo not shown) [carnosinol, reference compound]															resistant to CN1

From PMC10119279 (Scientific Reports, 2023)
